Literature values in patent US20030129616A1, “Use of a mutation in the gene for the beta3-subunit of human g-protein” (priority 2000, published 2003).

Test system: bladder tumor cells

## pertussis toxin
  migration of bladder tumor cells: greatly inhibited
